Test results from PubChem BioAssay (NCI).
Where “and” joins values, the source holds several entries; their conditions need not be identical. Equal values may be shown once.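 How tested: cells in 96-well plates exposed to compound for 48 hours at five concentrations. At the GI50, growth is halved. Definition used: TGI = concentration required for complete inhibition of growth.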

Columns and labels:
Experiment in all cases: NCI anticancer screen, dose series, 48 h
MDA-MB-435 = test system: MDA-MB-435
NCI/ADR-RES ovarian = test system: NCI/ADR-RES ovarian
MDA-MB-231 breast = test system: MDA-MB-231 breast
OVCAR-3 ovarian = test system: OVCAR-3 ovarian
M14 melanoma = test system: M14 melanoma
BT-549 breast = test system: BT-549 breast
CAKI-1 renal = test system: CAKI-1 renal
NCI-H23 lung = test system: NCI-H23 lung
TK-10 renal = test system: TK-10 renal
SNB-19 CNS = test system: SNB-19 CNS

SMILES	GI50 (MDA-MB-435)	TGI (MDA-MB-435)	GI50 (NCI/ADR-RES ovarian)	TGI (NCI/ADR-RES ovarian)	GI50 (MDA-MB-231 breast)	TGI (MDA-MB-231 breast)	GI50 (OVCAR-3 ovarian)	TGI (OVCAR-3 ovarian)	GI50 (M14 melanoma)	TGI (M14 melanoma)	GI50 (BT-549 breast)	TGI (BT-549 breast)	GI50 (CAKI-1 renal)	TGI (CAKI-1 renal)	GI50 (NCI-H23 lung)	TGI (NCI-H23 lung)	GI50 (TK-10 renal)	TGI (TK-10 renal)	GI50 (SNB-19 CNS)	TGI (SNB-19 CNS)
COc1ccc2c(c1)c(-c1cc(-c3cn(C)c4ccc(OC)cc34)[nH]n1)cn2C	> 100 µM	> 100 µM	> 100 µM	> 100 µM	> 100 µM	> 100 µM	> 100 µM	> 100 µM	> 100 µM	> 100 µM	> 100 µM	> 100 µM	> 100 µM	> 100 µM	> 100 µM	> 100 µM	> 100 µM	> 100 µM	> 100 µM	> 100 µM
Cc1ccc2c(C(C[N+](=O)[O-])c3ccco3)c(-c3ccccc3)[nH]c2c1 (configuration not stated)	3.04 µM	10.8 µM	11.7 µM	> 100 µM	27.1 µM	> 100 µM	22.8 µM	> 100 µM	12.2 µM	> 100 µM	48.8 µM	> 100 µM	5.63 µM	> 100 µM	64.5 µM	> 100 µM	12.3 µM	> 100 µM	59 µM	> 100 µM
CC(=O)c1c(Nc2ccc(F)c(F)c2F)[nH]c2c(F)cc(F)cc2c1=O	0.365 µM	7.26 µM	0.322 µM	34.5 µM	0.285 µM	1.77 µM	0.311 µM	11.6 µM	0.352 µM	4.06 µM	0.335 µM	5.76 µM	0.218 µM	1.61 µM	0.286 µM	4.41 µM	0.503 µM	47.8 µM	0.354 µM	> 70.2 µM
Nc1ccc2c(SCC(=O)Nc3ccccc3-c3ccccc3NC(=O)CSc3c4ccccc4nc4cc(N)ccc34)c3ccccc3nc2c1		> 73.5 µM		> 100 µM		> 84 µM		70.4 µM		59 µM		85.1 µM		> 83.5 µM		39.5 µM		75.3 µM		44.2 µM
CC[C@H](C)[C@H](NC(=O)N[C@@H](C)c1ccccc1)C(=O)N(C)[C@H](C[C@@H](OC(C)=O)c1nc(C(=O)N[C@@H](Cc2ccccc2)C[C@H](C)C(=O)OC)cs1)C(C)C	3.27 µM	13.3 µM	45.8 µM	> 100 µM	20.7 µM	63.8 µM	16.9 µM	42.2 µM	15.9 µM	46.7 µM	21.4 µM	74.9 µM	37.2 µM	> 100 µM	28.2 µM	> 100 µM	52 µM	> 100 µM	28.6 µM	> 100 µM
N#CC1=C(N)NC(=S)C(C#N)C12Nc1ccccc1S2 (configuration not stated)	17.2 µM	44.7 µM	14.3 µM	43.7 µM	11 µM	32.9 µM	12.6 µM	40.1 µM	16.1 µM	32 µM	21.7 µM	49.1 µM	11 µM	35.1 µM	13.4 µM	33.2 µM	14.4 µM	46.6 µM	25.8 µM	> 100 µM
CCOC(=O)/N=c1\ssc(Cl)c1Cl	15.2 µM	30.8 µM	4.11 µM	> 100 µM	6.95 µM	28.7 µM	6.53 µM	20.9 µM	7.44 µM	> 100 µM	2.77 µM	7.21 µM	14.9 µM	29.4 µM	3.25 µM	11.3 µM	4.72 µM	18.5 µM	23.7 µM	56.9 µM
CC(=O)OC1Oc2cc(C)c(C)cc2-c2oc(=O)c(-c3ccccc3)cc21 (configuration not stated)	0.036 µM	0.199 µM	0.213 µM	0.908 µM	0.584 µM	30.9 µM	0.114 µM	0.355 µM	0.351 µM	> 100 µM	7.34 µM	> 31.9 µM	0.525 µM	> 54.1 µM	0.615 µM	> 100 µM	1.14 µM	> 44.9 µM	0.496 µM	28.7 µM
CC(C)c1ccc2c(c1)c(SC(C)(C)C)c(CC(C)(C)C(=O)O)n2Cc1ccc(Cl)cc1	10.2 µM	26.1 µM	10.1 µM	26.7 µM	12.6 µM	27.3 µM	6.36 µM	19.8 µM	16.3 µM	36.5 µM	9.79 µM	22.5 µM	10.8 µM	25.8 µM	10.8 µM	28.1 µM	15.2 µM	30.6 µM	8.45 µM	22.7 µM
CC(C)(C)OC(=O)n1c(Cl)c(C(=O)N=C=S)c2ccccc21	80.8 µM	> 100 µM	18.5 µM	62.6 µM	15.7 µM	46 µM	25.6 µM	72.9 µM	> 100 µM	> 100 µM	30.9 µM	91.7 µM	34.6 µM	92 µM	28.4 µM	> 100 µM	27.3 µM	> 100 µM	44.4 µM	> 100 µM
COc1ccc(C2NC(=S)NC3=C2COc2ccc(F)cc23)cc1OC (configuration not stated)	12.3 µM	38.5 µM	18.9 µM	44.4 µM	8.37 µM	53.5 µM	11 µM	49.9 µM	33.9 µM	> 100 µM	27.9 µM	83.3 µM	15.8 µM	65 µM	14.1 µM	34.2 µM	31.2 µM	> 100 µM	46.7 µM	> 100 µM
COc1ccc(-c2nn(-c3cccc(Cl)c3)cc2/C=C2\C(=N)N(c3ccccc3)N=C2N)cc1	0.495 µM	21.2 µM	1.32 µM	> 48.9 µM	1.25 µM	28.7 µM	3.09 µM	20.4 µM	0.331 µM	5.42 µM	5.75 µM	39.2 µM	0.229 µM	0.844 µM	4.62 µM	43.5 µM	7.77 µM	> 95.8 µM	8.58 µM	> 100 µM
CCCCCCCCCCCCNC(=O)[C@H]1CSC(c2ccsc2)N1 (some centres not stated)	0.68 µM	1.35 µM	1.23 µM	2.56 µM	0.946 µM	1.74 µM	0.995 µM	1.81 µM	0.855 µM	1.63 µM	0.797 µM	1.58 µM	0.898 µM	1.6 µM	0.992 µM	1.94 µM	0.897 µM	1.63 µM	0.952 µM	1.83 µM
COc1cc(/C=C2\C(=O)Nc3ccc(Br)cc32)cc(OC)c1OC	2.02 µM	7.19 µM	4.01 µM	29.4 µM	7.68 µM	> 52.9 µM	5.59 µM	> 56.9 µM	15.7 µM	> 100 µM	1.28 µM	19.3 µM	1.85 µM	> 44.1 µM	8.07 µM	66 µM	4.65 µM	30.1 µM	29.8 µM	> 100 µM
COc1ccc(CNC(=O)c2ccc(-c3cc(-c4nnc(C)o4)ccc3C)cc2)cc1	10.6 µM	> 25 µM	16.1 µM	> 25 µM	> 25 µM	> 25 µM	17.1 µM	> 25 µM	> 25 µM	> 25 µM	13.3 µM	> 25 µM	19.5 µM	> 25 µM	17.4 µM	> 25 µM	> 25 µM	> 25 µM	> 22.8 µM	> 25 µM
O=C(Nc1nc2ccc(F)cc2s1)c1cccnc1Nc1ccc(Cl)cc1Cl	3.04 µM	14.3 µM	2.59 µM	10.5 µM	3.11 µM	14.4 µM	2.18 µM	7.1 µM	3.18 µM	14.6 µM	2.97 µM	17.5 µM	1.91 µM	8.71 µM	2.28 µM	9.56 µM	3.53 µM	19.1 µM	3.22 µM	14.7 µM
Cc1ccc(-c2cc(C(Cl)Cl)on2)cc1	62.9 µM	> 100 µM	44.9 µM	> 100 µM	> 100 µM	> 100 µM	51.8 µM	> 100 µM	74.1 µM	> 100 µM	> 100 µM	> 100 µM	43.8 µM	> 100 µM	55.3 µM	> 100 µM	54.9 µM	> 100 µM	> 100 µM	> 100 µM
CCCC(=O)Nc1cn(COC)c(C(=O)N2C[C@H]3C[C@@]34C2=CC(=O)c2[nH]cc(C)c24)n1	13.4 µM	26.2 µM and > 100 µM	12 µM	15.8 µM and 43.6 µM	10.7 µM	39.7 µM and > 100 µM	4.93 µM	24.5 µM and 72 µM	7.14 µM	50 µM and > 100 µM	5.51 µM	43.1 µM and 58.9 µM	5.42 µM	17.3 µM and > 100 µM	2.59 µM	11.8 µM and 16.7 µM		46.2 µM	10.4 µM	50 µM and > 100 µM
O=c1c2ccccc2c(=O)c2c1sc1c(=O)c3ccc(O)cc3c(=O)c12	0.173 µM	0.326 µM	1.45 µM	6.87 µM	1.72 µM	8.19 µM	0.263 µM	0.924 µM	0.0976 µM	0.219 µM	0.163 µM	0.33 µM	1.29 µM	3.26 µM	0.181 µM	0.505 µM	2.24 µM	3.97 µM	0.342 µM	1.24 µM
Oc1cccc(-c2nc(N3CCOCC3)c3oc4ncccc4c3n2)c1	0.122 µM and 0.0675 µM	0.847 µM and 0.784 µM	0.147 µM and 0.225 µM		0.34 µM and 0.3 µM	54.5 µM and 33.2 µM	0.164 µM and 0.213 µM	0.811 µM and 3.24 µM	0.127 µM and 0.152 µM		0.0515 µM and 0.036 µM	1.18 µM and 1.15 µM	0.318 µM and 0.342 µM	2.24 µM and 7.38 µM	0.269 µM and 0.292 µM	> 100 µM and 31.4 µM	1.26 µM and 1.51 µM	4.01 µM and 4.58 µM	0.358 µM and 0.247 µM	7.43 µM and 6.83 µM
NC1(C(=O)O)CSSC1	3.54 µM	13.9 µM	3.46 µM	27.7 µM	17.1 µM	44.3 µM	4.75 µM	59.3 µM	3.21 µM	11.8 µM	4.87 µM	40.2 µM	6.22 µM	40.5 µM	3.02 µM	14.8 µM	3.42 µM	24.3 µM	3.59 µM	84 µM
COc1ccc(-c2nn3ncccc3c2-c2ccnc(Nc3cccc(C(F)(F)F)c3)n2)cc1	10.1 µM	> 25 µM	6.16 µM	> 25 µM	8.12 µM	> 25 µM	8.36 µM	> 25 µM	9.01 µM	> 25 µM	12.4 µM	> 25 µM	7 µM	> 25 µM	7.99 µM	> 25 µM	8.49 µM	> 22.5 µM	12.5 µM	> 25 µM
Cc1cc([C@H](C)Nc2nccc(N3C(=O)OC[C@@H]3[C@H](C)F)n2)ncc1-c1ccnc(C(F)(F)F)c1	41.1 µM	> 100 µM	23.3 µM	> 100 µM	34.5 µM	> 100 µM	36.3 µM	> 100 µM	37.7 µM	> 100 µM	18.1 µM	82.6 µM	27.8 µM	> 100 µM	17 µM	> 100 µM	53 µM	> 100 µM	39 µM	> 100 µM
O=C(O)C(O)c1ccc(F)cc1 (configuration not stated)		> 100 µM		> 100 µM		> 100 µM		> 100 µM		> 100 µM		> 100 µM		> 100 µM		> 100 µM		> 100 µM		> 100 µM
CN1CCN(CCCOc2ccc3ncnc(Nc4ccc(Oc5cccc(F)c5)c(Cl)c4)c3c2)CC1	1.67 µM	3.19 µM	1.83 µM	4.79 µM	1.7 µM	3.16 µM	1.61 µM	3.74 µM	1.79 µM	3.62 µM	1.7 µM	3.3 µM	1.52 µM	3.1 µM	1.48 µM	3.02 µM	1.05 µM	2.32 µM	1.64 µM	3.16 µM
